Results reported in PubChem BioAssay (NCI).
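48-hour exposure; five concentrations; linearly interpolated endpoints. The concentration for full growth arrest is given as TGI.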

What was measured:
Assay in all cases: inhibition of tumour cell growth, NCI panel, 48 h
786-0 renal = system: 786-0 renal
A498 renal = system: A498 renal
A549 NSCLC = system: A549 NSCLC
ACHN renal = system: ACHN renal
CAKI-1 renal = system: CAKI-1 renal
CCRF-CEM leukemia = system: CCRF-CEM leukemia
COLO 205 colon = system: COLO 205 colon
DLD-1 colon = system: DLD-1 colon
DMS 114 small cell lung = system: DMS 114 small cell lung
DMS 273 small cell lung = system: DMS 273 small cell lung
EKVX NSCLC = system: EKVX NSCLC
HCC-2998 colon = system: HCC-2998 colon
HL-60(TB) leukemia = system: HL-60(TB) leukemia
HOP-18 NSCLC = system: HOP-18 NSCLC
HOP-62 NSCLC = system: HOP-62 NSCLC
HOP-92 NSCLC = system: HOP-92 NSCLC
HT29 colon = system: HT29 colon
IGROV1 ovarian = system: IGROV1 ovarian
K-562 leukemia = system: K-562 leukemia
KM12 colon = system: KM12 colon
LOX IMVI melanoma = system: LOX IMVI melanoma
LXFL 529 NSCLC = system: LXFL 529 NSCLC
M19-MEL melanoma = system: M19-MEL melanoma
MALME-3M melanoma = system: MALME-3M melanoma
MOLT-4 leukemia = system: MOLT-4 leukemia
NCI-H226 lung = system: NCI-H226 lung
NCI-H23 lung = system: NCI-H23 lung
NCI-H460 lung = system: NCI-H460 lung
NCI-H522 lung = system: NCI-H522 lung
OVCAR-4 ovarian = system: OVCAR-4 ovarian
OVCAR-5 ovarian = system: OVCAR-5 ovarian
OVCAR-8 ovarian = system: OVCAR-8 ovarian
RXF 393 renal = system: RXF 393 renal
SF-268 CNS = system: SF-268 CNS
SF-295 CNS = system: SF-295 CNS
SF-539 CNS = system: SF-539 CNS
SK-MEL-2 melanoma = system: SK-MEL-2 melanoma
SK-MEL-28 melanoma = system: SK-MEL-28 melanoma
SK-MEL-5 melanoma = system: SK-MEL-5 melanoma
SK-OV-3 ovarian = system: SK-OV-3 ovarian
SN12C renal = system: SN12C renal
SNB-19 CNS = system: SNB-19 CNS
SNB-78 CNS = system: SNB-78 CNS
SR leukemia = system: SR leukemia
SW-620 colon = system: SW-620 colon
TK-10 renal = system: TK-10 renal
U251 CNS = system: U251 CNS
UACC-257 melanoma = system: UACC-257 melanoma
UACC-62 melanoma = system: UACC-62 melanoma
UO-31 renal = system: UO-31 renal
XF 498 CNS = system: XF 498 CNS

Measured: TGI

N=c1c2ccccc2sc2nc3ccccc3n12
> 100 µM: all assays above
